From patent US20040023884A1, “Biologically active peptides from functional domains of bactericidal/permeability-increasing protein and uses thereof” (priority 1993, published 2004)
Square brackets hold non-standard residues; d marks the D form. Ends that are not written are not given here. 1Nal = N[C@@H](Cc1cccc2ccccc12)C(=O)O

Columns and labels:
[1] = 3H-heparin binding assay (affinity and capacity); conditions: for Heparin Capacity: heparin bound at saturation; for Kd: read-out: Heparin Affinity
In short: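 Peptide fragments were bound to PVDF-membrane wells and incubated with 3H-heparin in blocking buffer for 1 h at 4 °C. After washing, bound radioactivity was quantified by liquid scintillation counting, with BSA background subtracted; rBPI23 served as positive control.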

[2] = tested on: rough mutant E. coli J5 bacteria; experiment: Radial diffusion bactericidal assay, E. coli J5; format: cell-based; conditions: radial diffusion; for pmol added to well to achieve a 30 mm^2 bactericidal zone, E. coli J5: PROBIT analysis, E. coli J5 (rough); for bactericidal activity (in words): E. coli J5
In short: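 Wells received 5 or 10 μL of BPI fragment, pre-incubated 3 h at 37 °C. The underlayer agarose carried washed log-phase organisms at 4×10^6 CFU/mL.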

[3] = tested on: Staphylococcus aureus; experiment: Radial diffusion bactericidal assay, Staphylococcus aureus; format: cell-based; conditions: radial diffusion; PROBIT analysis; S. aureus
[4] = tested on: E. coli 0111:B4 (smooth) bacteria; experiment: Radial diffusion bactericidal assay, E. coli 0111:B4; format: cell-based; conditions: radial diffusion; for pmol added to well to achieve a 30 mm^2 bactericidal zone, E. coli O111:B4: PROBIT analysis, E. coli O111:B4 (smooth); for bactericidal activity (in words): E. coli 0111:B4
[5] = tested on: multi-resistant strain E. coli 19536; experiment: Radial diffusion bactericidal assay, multi-antibiotic resistant E. coli 19536; format: cell-based
Method: (§1) These studies were conducted substantially following the procedures used in Example 2.
In order to test the bactericidal activity of BPI peptides against multi-antibiotic resistant E. coli, a multi-resistant strain E. coli 19536 (ampR 16 μg/mL; ceftazidimeR>16 μg/mL; ceftriazoneR>16 μg/mL) was tested. This strain is a clinical isolate obtained from the Baxter Microscan® library (Sacramento, Calif.). An overnight culture of E. coli 19536 was tested as described in Example 2 and part A above. Test BPI peptides were 2-fold serially diluted in D-PBS starting at about 1 mg/mL.

[6] = tested on: RAW 264.7 cells; experiment: LPS neutralization cellular proliferation assay, RAW 264.7 cells; format: cell-based, mouse
In short: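 Mouse RAW 264.7 cells were primed 24 h with 50U/mL mouse γ-interferon, then exposed about 15 h to E. coli O113 LPS in serum-free RPMI with or without BPI peptides at 25 ng/mL–50 μg/mL. Proliferation was quantified by [^3H]-thymidine uptake, 1 μCi/well, added at 5 h.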

[7] = tested on: E. coli J5 (rough); experiment: Broth antibacterial assay, E. coli J5; format: cell-based
Method: (§2) In additional experiments, broth antibacterial assays were conducted to further determine the bactericidal activity of certain of the BPI peptides. Specifically, either E. coli J5 (rough) or E. coli 0111:B4 (smooth) bacteria were selected from single colonies on agar plates and used to inoculate 5 mL of Mueller Hinton broth and incubated overnight at 37° C. with shaking. The overnight culture was diluted (˜1:50) into 5 mL fresh broth and incubated at 37° C. to log phase (˜3 hours). Bacteria were pelleted for 5 minutes at 3000 rpm (1500×g). Bacterial pellets were resuspended in 5 mL PBS and diluted to 2×10^6 cells/mL in the Mueller Hinton broth (wherein 1 OD570 unit equals 1.25×10^9 CFU/mL). The BPI functional domain peptides to be tested were diluted to 200 μg/mL in broth and serially diluted 2-fold in 96 well culture plates (100 μL volume). All items were at 2-fold final concentration and experiments were conducted in triplicate. Bacteria were added at 100 μL/well and the plates were incubated on a shaker at 37° C. for a 20 hour period. The plates were then read on an ELISA plate multiple reader at 590 nm. One of the triplicate wells from each peptide concentration was selected for colony forming unit (CFU) determination. A 30 μL aliquot was added to 270 μL of PBS and further ten-fold serial dilutions were performed. Then a 50 μL aliquot was plated on tryptic soy agar and incubated overnight. Colonies were counted and final bacterial concentrations determined. The results of these assays are depicted in FIGS. 9e (for E. coli J5) and 9f (for E. coli 0111:B4).

[8] = tested on: E. coli 0111:B4 (smooth); experiment: Broth antibacterial assay, E. coli 0111:B4; format: cell-based
Method: as §2

[9] = Heparin binding by tryptophan fluorescence quenching
Excerpt: (§3) The naturally-occurring amino acid tryptophan can emit light (i.e., it fluoresces) having a wavelength between 300 and 400 nm after excitation with light having a wavelength of between about 280 nm and 290 nm, preferably 285 nm. The amount of emitted light produced by such fluorescence is known to be affected by the local environment, including pH and buffer conditions, as well as binding interactions between proteins and other molecules. Some BPI functional domain peptides derived from domains II and III contain tryptophan residues, and tryptophan fluorescence was used to assay binding interactions between the BPI functional domain peptides of the invention and LPS or heparin.
(§4) Tryptophan fluorescence of the BPI functional domain peptides of the invention was determined in the presence or absence of LPS or heparin using a SPEX Fluorolog fluorimeter. Samples were excited with 285 nm light using a 0.25 nm slitwidth. Emission wavelengths were scanned between 300-400 nm using a 1.25 nm slitwidth. Data were accumulated as the average of three determinations performed over an approximately 5 min time span. Samples were maintained at 25° C. or 37° C. during the course of the experiments using a circulating water bath. Crab endotoxin binding protein (CEBP), a protein wherein the intrinsic fluorescence of tryptophan residues is affected by binding to LPS, was used as a positive control. (See Wainwright et al., 1990, Cellular and Molecular Aspects of Endotoxin Reactions, Nowotny et al., eds., Elsevier Science Publishing B.V., The Netherlands, pp. 315-325).
(§5) Kd values were determined by Scatchard-type Stern-Volmer plots of the quenching data as the negative inverse of the slope of such plots. Comparing the data for BPI.10, BPI.46 and BPI.47, it is seen that as the Kd decreased (indicating an increase in avidity for LPS), the percent fluorescence quenching increased. The differences between these peptides include replacement of basic and polar amino acid residues with non-polar residues in […] as compared with BPI.10. In contrast, as the Kd of heparin binding decreased, a corresponding increase in the percentage of fluorescence quenching was not detected.

[10] = tested on: Klebsiella pneumoniae 19645; experiment: Radial diffusion bactericidal assay, antibiotic resistant Klebsiella pneumoniae 19645; format: cell-based
Method: as §1
In order to test the bactericidal activity of BPI peptides on antibiotic resistant strains of Klebsiella pneumoniae, the multi-resistant clinically isolated strain 19645 was tested as in Example 2 and above. […] This strain was obtained from the Baxter Microscan® library (Sacramento, Calif.). An overnight culture of Klebsiella pneumoniae 19645 and a non-resistant strain (ATCC 29011) were diluted 1:50 into fresh tryptic soy broth and incubated for 3 hours at 37° C. to attain log phase. The overnight cultures were tested as described in Example 2 and part A above.

[11] = LPS binding by tryptophan fluorescence quenching
Excerpt: as §3, §4, §5

[12] = tested on: C. albicans; experiment: Radial diffusion fungicidal assay, Candida albicans; format: cell-based; conditions: radial diffusion

IKISGKWKAFFRFLK [BPI.88]
Heparin Capacity [1]: 352.8 ng | Kd [1]: 1630 nM | pmol added to well to achieve a 30 mm^2 bactericidal zone, E. coli J5 [2]: 70.32 pmol | pmol added to well to achieve a 30 mm^2 bactericidal zone, S. aureus [3]: 9,051.04 pmol | pmol added to well to achieve a 30 mm^2 bactericidal zone, E. coli O111:B4 [4]: 540.15 pmol | bactericidal activity (in words) [5]: activity against multi-antibiotic resistant E. coli | EC50 (peptide concentration at which the growth inhibitory effect of LPS was reversed by 50%) [6]: >50 µg/mL | IC50 (peptide concentration at which RAW cell growth was inhibited by 50%) [6]: 6.2 ± 7.5 µg/mL

KRFLKKWKAQKRFLK [BPI.9]
Heparin Capacity [1]: 212.5 ng | Kd [1]: 1140 nM | bactericidal activity (in words) [2]: exhibited bactericidal activity | pmol added to well to achieve a 30 mm^2 bactericidal zone, E. coli J5 [2]: 476.60 pmol | bactericidal activity (in words) [7]: significant bactericidal activity | bactericidal activity (in words) [8]: significant bactericidal activity | bactericidal activity (in words) [4]: exhibited bactericidal activity | pmol added to well to achieve a 30 mm^2 bactericidal zone, E. coli O111:B4 [4]: 5,337.50 pmol

KRFLKKWKAQKRFLKKWKAQKRFLK [BPI.10.1]
bactericidal activity (in words) [2]: exhibited bactericidal activity | bactericidal activity (in words) [7]: significant bactericidal activity | bactericidal activity (in words) [8]: significant bactericidal activity | bactericidal activity (in words) [4]: exhibited bactericidal activity

KWKAAARFLKKWKAAARFLKKWKAAARFLK [BPI.69]
heparin binding capacity (in words) [1]: extremely high heparin capacity | Heparin Capacity [1]: 450.8 ng | Kd [1]: 967 nM | Quenching Heparin [9]: 42% | Kd ([9]; Stern-Volmer plots): 400 nM | bactericidal activity (in words) [2]: highly bactericidal | pmol added to well to achieve a 30 mm^2 bactericidal zone, E. coli J5 [2]: 56.68 pmol | pmol added to well to achieve a 30 mm^2 bactericidal zone, S. aureus [3]: 1,057.56 pmol | bactericidal activity (in words) [10]: active against antibiotic resistant Klebsiella | pmol added to well to achieve a 30 mm^2 bactericidal zone, E. coli O111:B4 [4]: 244.07 pmol | Quenching LPS [11]: 72% | Kd ([11]; Stern-Volmer plots): 58 nM | bactericidal activity (in words) [5]: activity against multi-antibiotic resistant E. coli | EC50 (peptide concentration at which the growth inhibitory effect of LPS was reversed by 50%) [6]: 0.11 ± 0.07 µg/mL | IC50 (peptide concentration at which RAW cell growth was inhibited by 50%) [6]: 2.4 ± 0.3 µg/mL

QKRFLKKWKAQKRFLKKWKAQKRFLK [BPI.10.2]
bactericidal activity (in words) [2]: exhibited bactericidal activity | bactericidal activity (in words) [7]: significant bactericidal activity | bactericidal activity (in words) [8]: significant bactericidal activity | bactericidal activity (in words) [4]: exhibited bactericidal activity

IKISGKWKAWKRFLKK [BPI.103]
pmol added to well to achieve a 30 mm^2 bactericidal zone, E. coli J5 [2]: 165.18 pmol | pmol added to well to achieve a 30 mm^2 bactericidal zone, S. aureus [3]: 4,705.95 pmol | bactericidal activity (in words) [10]: active against antibiotic resistant Klebsiella | pmol added to well to achieve a 30 mm^2 bactericidal zone, E. coli O111:B4 [4]: 415.19 pmol

IKISGKWKAQKRFLKKSKVGWLIQLFHKK [BPI.63]
heparin binding capacity (in words) [1]: extremely high heparin capacity | Heparin Capacity [1]: 305.1 ng | Kd [1]: 600 nM | bactericidal activity (in words) [2]: highly bactericidal | pmol added to well to achieve a 30 mm^2 bactericidal zone, E. coli J5 [2]: 86.94 pmol | pmol added to well to achieve a 30 mm^2 bactericidal zone, S. aureus [3]: 2,101.84 pmol | C. albicans: pmol required for 30 mm^2 zone [12]: >1006.34 pmol | bactericidal activity (in words) [10]: active against antibiotic resistant Klebsiella | pmol added to well to achieve a 30 mm^2 bactericidal zone, E. coli O111:B4 [4]: 511.61 pmol | bactericidal activity (in words) [5]: activity against multi-antibiotic resistant E. coli | EC50 (peptide concentration at which the growth inhibitory effect of LPS was reversed by 50%) [6]: 0.08 ± 0.02 µg/mL | IC50 (peptide concentration at which RAW cell growth was inhibited by 50%) [6]: 7.1 ± 0.02 µg/mL

IKISGKAβ-(1-naphthyl)KAAβ-(1-naphthyl)KRFLK (IKISGK[1Nal]KA[1Nal]KRFLK) [BPI.119]
pmol added to well to achieve a 30 mm^2 bactericidal zone, E. coli J5 [2]: 106.70 pmol | pmol added to well to achieve a 30 mm^2 bactericidal zone, S. aureus [3]: 166,163.83 pmol | bactericidal activity (in words) [10]: active against antibiotic resistant Klebsiella | pmol added to well to achieve a 30 mm^2 bactericidal zone, E. coli O111:B4 [4]: 536.44 pmol
